The record followed here is patent US6124323A, “4-substituted piperidine analogs and their use as subtype selective NMDA receptor antagonists” (Warner-Lambert Company, priority 1998, dated 2000).

Structures can show the parent of a compound that is named as a salt. Some results are limits rather than exact numbers.

Usually ED50 stands for the dose that gives a 50% effect, or the effect in half of the subjects. A higher ED50 goes with a need for a large dose.

In assay [1] the target is T1, NMDA receptor subunits 1A/2C (Rattus norvegicus, UniProt P35439+Q00961).
T1 construct: expressed in transfected cells; host or cells: Xenopus laevis oocytes (cRNA injection; clones from Dr. P. H. Seeburg)
The assay is described as follows: Electrophysiological assay at NMDA receptor subunits expressed in Xenopus oocytes, 1A/2C. It is filed as cell-based. To be noted: Xenopus oocytes; glutamate 100 μm and glycine 1-100 μm; read-out: Subunits IC50, 1A/2C. The protocol: (§1) Many of the properties of native NMDA receptors are seen in recombinant homomeric NR1 receptors. These properties are altered by the NR2 subunits. Recombinant NMDA receptors expressed in Xenopus oocytes have been studied by voltage-clamp recording, as has developmental and regional expression of the mRNAs encoding NMDA receptor subunits. Electrophysiological assays were utilized to characterize the actions of compounds at NMDA receptors expressed in Xenopus oocytes. The compounds were assayed at four subunit combinations of cloned rat NMDA receptors, corresponding to three putative NMDA receptor subtypes [Moriyoshi, et al. Nature 1991, 354, 31-37; Monyer et al, Science 1992, 256, 1217-1221; Kutsuwada et al, Nature 1992, 358, 36-41; Sugihara et al, Biochem. Biophys Res. Commun. 1992, 185, 826-832].
(§2) Electrophysiological Assays at NMDA Receptor Subunits
(§3) Preparation of RNA. cDNA clones encoding the NR1A, NR2A, NR2B, NR2C and NR2D rat NMDA receptor subtypes were provided by Dr. P. H. Seeburg (see, Moriyoshi et al., Nature (Lond.) 354:31-37 (1991); Kutsuwada et al., Nature (Lond.) 358:36-41 (1992) Monyer et al., Science (Washington, D.C.) 256:1217-1221 (1992); Ikeda et al., FEBS Lett. 313:34-38 (1992); Ishii et al., J. Biol. Chem. 268:2836-2843 (1993) for details of these clones or their mouse homologs). The clones were transformed into appropriate host bacteria and plasmid preparations were made with conventional DNA purification techniques. A sample of each clone was linearized by restriction enzyme digestion and cRNA was synthesized with T3 RNA polymerase. The cRNA was diluted to 400 ng/μl and stored in 1 μl aliquots at -80° C. until injection.
(§4) The Xenopus oocyte expression system. Mature female Xenopus laevis were anaesthetized (20-40 min) using 0.15% 3-aminobenzoic acid ethyl ester (MS-222) and 2-4 ovarian lobes were surgically removed. Oocytes at developmental stages IV-VI (Dumont, J. N., J. Morphol. 136:153-180 (1972)), were dissected from the ovary still surrounded by enveloping ovarian tissues. Follicle-enclosed oocytes were micro-injected with 1:1 mixtures of cRNA:NR1A+NR2A, 2B, 2C or 2D; injecting ~2,5, or 20 ng of RNA encoding each receptor subunit. NR1A encoding cRNA was injected alone at ~20 ng. Oocytes were stored in Barth's medium containing (in mM):NaCl, 88; KCl, 1; CaCl2, 0.41; Ca(NO3)2, 0.33; MgSO4, 0.82 NaHCO3, 2.4; HEPES 5, pH 7.4, with 0.1 mg/ml gentamicin sulphate. While oocytes were still surrounded by enveloping ovarian tissues the Barth's medium was supplemented with 0.1% bovine serum. Oocytes were defolliculated 1-2 days following injections by treatment with collagenase (0.5 mg/ml Sigma Type I for 0.5-1 hr) (Miledi and Woodward, J. Physiol. (Lond.) 416:601-621 (1989)) and subsequently stored in serum-free medium.
(§5) Electrical recordings were made using a conventional two-electrode voltage clamp (Dagan TEV-200) over periods ranging between 3-21 days following injection. (Woodward et al., Mol. Pharmacol. 41: 89-103 (1992)). Oocytes were placed in a 0.1 ml recording chamber continuously perfused (5-15 ml min^-1 ) with frog Ringer's solution containing (in mM):NaCl, 115; KCl, 2; CaCl2, 1.8; HEPES, 5; pH 7.4. Drugs were applied by bath perfusion. Using oocytes expressing different subunit combinations of NMDA receptor, NMDA currents were activated by co-application of glutamate (100 μm) and glycine (1-100 μm). Inhibitory potency of the novel antagonists was assessed on responses elicited by fixed concentrations of glutamate and glycine, by measuring reductions in current induced by progressively increasing concentrations of antagonist. Concentration-inhibition curves were fit with equation 1.
(§6) I/Icontrol =1/(1+([antagonist]/10^-pIC50)^n) Eq. 1
(§7) in which Icontrol is the current evoked by agonists alone, pIC50 =-log IC50, IC50 is the concentration of antagonist that produces half maximal inhibition, and n is the slope factor. (De Lean et al., Am. J. Physiol. 235:E97-102 (1978)). […]

The target in assay [2] is T2, NMDA receptor subunits 1A/2A (Rattus norvegicus, UniProt P35439+Q00959).
T2 construct: expressed in transfected cells; host or cells: Xenopus laevis oocytes (cRNA injection; clones from Dr. P. H. Seeburg)
The assay is described as follows: Electrophysiological assay at NMDA receptor subunits expressed in Xenopus oocytes, 1A/2A. In kind it is cell-based. Conditions: glutamate 100 μm and glycine 1-100 μm. On the procedure:
as §1, §2, §3, §4, §5, §6, §7

In assay [3] the target is T3, NMDA receptor subunits 1A/2B (Rattus norvegicus, UniProt P35439+Q00960).
T3 construct: expressed in transfected cells; host or cells: Xenopus laevis oocytes (cRNA injection; clones from Dr. P. H. Seeburg)
The assay is described as follows: Electrophysiological assay at NMDA receptor subunits expressed in Xenopus oocytes, 1A/2B. In kind it is cell-based. To be noted: Xenopus oocytes; glutamate 100 μm and glycine 1-100 μm; read-out: Subunits IC50, 1A/2B. On the procedure:
as §1, §2, §3, §4, §5, §6, §7

Assay [4] deals with Maximal Electroshock-induced Seizures. The experiment in a line: Maximal electroshock-induced seizures (MES). It is filed as in vivo. To be noted: Mus musculus; mice; 50 mA, 60 pulses/sec, 1 sec.
Excerpt: Seizures were induced by application of current (50 mA, 60 pulses/sec, 0.8 sec pulse width, 1 sec duration, d.c.) through saline-coated corneal electrodes using a Ugo Basile ECT device (Model 7801). […] A tonic seizure was defined as a hindlimb extension in excess of 90 degrees from the plane of the body.

T2 sequence (Q00959 20-1464 limits assumed, other chains not shown): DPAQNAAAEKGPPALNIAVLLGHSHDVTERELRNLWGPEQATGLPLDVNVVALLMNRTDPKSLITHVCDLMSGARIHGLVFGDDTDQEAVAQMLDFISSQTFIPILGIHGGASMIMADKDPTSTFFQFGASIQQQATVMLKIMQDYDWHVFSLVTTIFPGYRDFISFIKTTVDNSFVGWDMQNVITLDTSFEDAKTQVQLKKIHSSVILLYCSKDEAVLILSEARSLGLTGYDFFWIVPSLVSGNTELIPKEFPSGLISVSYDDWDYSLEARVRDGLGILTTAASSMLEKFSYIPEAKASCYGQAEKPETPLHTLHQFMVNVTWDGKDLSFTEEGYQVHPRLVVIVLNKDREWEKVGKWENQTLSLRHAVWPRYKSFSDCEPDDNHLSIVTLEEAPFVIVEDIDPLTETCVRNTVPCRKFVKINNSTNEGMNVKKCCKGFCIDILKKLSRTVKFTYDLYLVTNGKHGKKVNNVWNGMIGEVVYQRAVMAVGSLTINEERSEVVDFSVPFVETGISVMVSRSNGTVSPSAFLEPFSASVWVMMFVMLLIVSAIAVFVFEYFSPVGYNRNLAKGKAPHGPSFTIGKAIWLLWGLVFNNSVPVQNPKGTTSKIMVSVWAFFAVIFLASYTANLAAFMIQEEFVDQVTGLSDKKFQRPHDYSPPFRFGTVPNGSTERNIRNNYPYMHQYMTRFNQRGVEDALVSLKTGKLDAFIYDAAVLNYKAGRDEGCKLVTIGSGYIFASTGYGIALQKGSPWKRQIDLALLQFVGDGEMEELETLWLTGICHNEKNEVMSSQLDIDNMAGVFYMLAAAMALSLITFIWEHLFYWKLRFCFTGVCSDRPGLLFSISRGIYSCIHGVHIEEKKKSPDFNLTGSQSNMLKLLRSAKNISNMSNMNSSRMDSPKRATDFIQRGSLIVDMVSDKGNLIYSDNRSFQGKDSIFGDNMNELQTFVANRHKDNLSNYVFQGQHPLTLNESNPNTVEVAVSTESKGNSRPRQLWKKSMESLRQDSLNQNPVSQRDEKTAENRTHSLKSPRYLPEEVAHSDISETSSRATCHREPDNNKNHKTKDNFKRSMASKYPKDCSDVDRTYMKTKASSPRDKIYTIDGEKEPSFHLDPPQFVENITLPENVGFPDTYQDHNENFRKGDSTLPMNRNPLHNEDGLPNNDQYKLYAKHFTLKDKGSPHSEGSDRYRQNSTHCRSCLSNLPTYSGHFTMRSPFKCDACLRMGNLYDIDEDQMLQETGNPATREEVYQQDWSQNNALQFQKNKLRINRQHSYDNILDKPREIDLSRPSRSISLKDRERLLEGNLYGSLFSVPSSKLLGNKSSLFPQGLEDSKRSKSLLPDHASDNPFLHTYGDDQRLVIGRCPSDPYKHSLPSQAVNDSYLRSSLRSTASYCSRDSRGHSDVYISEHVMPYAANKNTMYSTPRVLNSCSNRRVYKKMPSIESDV
T3 sequence (Q00960 27-1482, other chains not shown): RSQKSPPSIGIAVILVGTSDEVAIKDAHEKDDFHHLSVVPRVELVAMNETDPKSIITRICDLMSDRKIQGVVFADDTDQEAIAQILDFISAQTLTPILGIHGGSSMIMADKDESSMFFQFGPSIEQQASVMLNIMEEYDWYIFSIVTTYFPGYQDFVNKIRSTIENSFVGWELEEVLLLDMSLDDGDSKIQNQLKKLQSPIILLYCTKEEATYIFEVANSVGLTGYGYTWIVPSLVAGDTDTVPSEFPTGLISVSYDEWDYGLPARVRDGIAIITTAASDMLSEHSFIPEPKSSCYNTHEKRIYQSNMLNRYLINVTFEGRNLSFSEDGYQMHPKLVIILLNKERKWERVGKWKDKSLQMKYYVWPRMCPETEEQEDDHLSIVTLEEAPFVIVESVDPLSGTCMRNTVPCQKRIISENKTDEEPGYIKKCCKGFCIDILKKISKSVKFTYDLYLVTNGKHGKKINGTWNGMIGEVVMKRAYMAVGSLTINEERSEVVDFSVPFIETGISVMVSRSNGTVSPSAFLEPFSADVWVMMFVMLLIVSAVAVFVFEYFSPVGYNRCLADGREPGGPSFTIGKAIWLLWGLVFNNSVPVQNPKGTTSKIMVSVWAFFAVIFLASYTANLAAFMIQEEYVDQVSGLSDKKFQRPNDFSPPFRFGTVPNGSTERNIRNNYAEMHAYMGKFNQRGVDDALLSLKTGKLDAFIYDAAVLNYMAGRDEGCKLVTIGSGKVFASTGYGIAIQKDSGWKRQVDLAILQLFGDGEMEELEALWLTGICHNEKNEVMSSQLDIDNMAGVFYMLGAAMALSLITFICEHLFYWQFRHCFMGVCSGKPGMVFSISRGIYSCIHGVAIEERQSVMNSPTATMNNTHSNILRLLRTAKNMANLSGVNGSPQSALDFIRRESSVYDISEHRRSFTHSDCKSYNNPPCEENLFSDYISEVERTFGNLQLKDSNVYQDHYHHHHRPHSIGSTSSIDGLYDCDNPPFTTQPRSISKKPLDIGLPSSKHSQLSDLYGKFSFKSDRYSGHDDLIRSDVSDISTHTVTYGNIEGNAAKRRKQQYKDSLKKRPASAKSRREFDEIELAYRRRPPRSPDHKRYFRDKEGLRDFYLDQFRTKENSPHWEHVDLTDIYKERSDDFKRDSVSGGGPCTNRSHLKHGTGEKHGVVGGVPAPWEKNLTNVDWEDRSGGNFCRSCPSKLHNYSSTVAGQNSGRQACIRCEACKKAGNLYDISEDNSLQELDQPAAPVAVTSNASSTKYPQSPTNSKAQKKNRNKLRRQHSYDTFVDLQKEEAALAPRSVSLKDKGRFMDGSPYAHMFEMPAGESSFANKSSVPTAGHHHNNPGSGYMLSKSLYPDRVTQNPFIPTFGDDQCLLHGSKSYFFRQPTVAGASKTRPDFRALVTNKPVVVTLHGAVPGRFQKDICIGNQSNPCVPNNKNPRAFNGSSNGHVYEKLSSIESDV
T1 sequence (Q00961 20-1237, other chains not shown): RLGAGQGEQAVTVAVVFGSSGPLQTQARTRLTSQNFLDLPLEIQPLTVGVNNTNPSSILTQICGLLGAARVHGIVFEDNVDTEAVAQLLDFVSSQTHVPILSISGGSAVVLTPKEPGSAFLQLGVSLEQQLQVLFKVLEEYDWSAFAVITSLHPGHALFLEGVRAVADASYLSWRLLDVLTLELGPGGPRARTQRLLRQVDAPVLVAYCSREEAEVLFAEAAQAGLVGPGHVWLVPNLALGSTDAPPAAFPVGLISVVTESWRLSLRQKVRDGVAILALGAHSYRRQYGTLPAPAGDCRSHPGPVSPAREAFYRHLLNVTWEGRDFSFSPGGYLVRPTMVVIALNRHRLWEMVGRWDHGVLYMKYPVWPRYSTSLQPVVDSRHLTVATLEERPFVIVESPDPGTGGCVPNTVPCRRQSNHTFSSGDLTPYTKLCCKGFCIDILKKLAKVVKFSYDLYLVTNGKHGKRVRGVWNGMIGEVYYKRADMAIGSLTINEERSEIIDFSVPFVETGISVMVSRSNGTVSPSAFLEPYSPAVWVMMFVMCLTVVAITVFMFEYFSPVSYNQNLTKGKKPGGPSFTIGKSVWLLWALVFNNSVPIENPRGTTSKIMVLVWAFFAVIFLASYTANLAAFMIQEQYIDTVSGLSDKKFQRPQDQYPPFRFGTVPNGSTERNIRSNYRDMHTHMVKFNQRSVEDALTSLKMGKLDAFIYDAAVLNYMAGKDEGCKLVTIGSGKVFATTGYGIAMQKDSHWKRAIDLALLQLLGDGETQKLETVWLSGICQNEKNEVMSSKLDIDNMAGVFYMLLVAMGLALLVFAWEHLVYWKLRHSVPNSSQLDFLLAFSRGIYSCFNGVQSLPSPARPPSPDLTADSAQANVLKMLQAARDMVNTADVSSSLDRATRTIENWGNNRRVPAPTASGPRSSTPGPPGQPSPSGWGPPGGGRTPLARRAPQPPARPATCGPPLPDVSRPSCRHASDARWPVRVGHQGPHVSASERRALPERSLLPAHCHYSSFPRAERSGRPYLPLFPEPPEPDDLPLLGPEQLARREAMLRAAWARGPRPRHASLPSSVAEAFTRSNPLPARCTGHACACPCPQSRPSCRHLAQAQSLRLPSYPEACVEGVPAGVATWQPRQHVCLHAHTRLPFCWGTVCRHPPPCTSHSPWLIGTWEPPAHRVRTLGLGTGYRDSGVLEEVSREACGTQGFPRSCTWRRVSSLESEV

For the molecule `Oc1ccc(OCCN2CCC(Cc3ccc(C(F)(F)F)cc3)CC2)cc1` [Ex. 129, 1-[2-(4-Hydroxyphenoxy)ethyl]-4-(4-trifluorobenzyl)piperidine hydrochloride], the IC50 in assay [1] amounted to 170 µM; in assay [2], 170 µM; in assay [3], 0.05 µM. This molecule yielded an ED50 in assay [4] of 2 mg/kg.
Turning to `Clc1ccc(CC2CCN(CCCOc3ccccc3)CC2)cc1` [Ex. 30, 4-(4-Chlorobenzyl)-1-(3-phenoxypropyl)piperidine hydrobromide], the IC50 in assay [1] amounted to 100 µM; in assay [2] it was 50 µM; in assay [3] it was 0.8 µM. In assay [4], this molecule displayed an ED50 of 6 mg/kg.
For `ON=Cc1cccc(OCCN2CCC(Cc3ccccc3)CC2)c1` [Ex. 16, 3-((2-(4-Benzylpiperidin-1-yl)ethyl)oxy)benzaldehyde oxime], the IC50 in assay [1] was above 100 µM; in assay [3], 0.5 µM. Also, it took a dose of 2.5 mg/kg to reach the 50% effect level in assay [4] (ED50).
As to `Oc1ccc(OCCN2CCC(Cc3ccc4c(c3)CCCC4)CC2)cc1` [Ex. 139, 4-((5,6,7,8-Tetrahydro-2-naphthyl)methyl)-1-(2-(4-hydroxyphenoxy)ethyl)piperidine hydrochloride], the IC50 in assay [2] turned out to be 70 µM; in assay [3] it was 0.25 µM. In assay [4], this molecule came in with an ED50 of 4.5 mg/kg.
In the case of `Cl.Oc1ccc(OCCN2CCC(Cc3ccc(F)cc3)CC2)cc1F` [Ex. 150, 1-[2-(4-Hydroxy-3-fluorophenoxy)ethyl]-4-(4-fluorobenzyl)piperidine hydrochloride], the IC50 is above 300 µM in assay [1] and 0.02 µM in assay [3]. Also, in assay [4], the ED50 was 3 mg/kg.
The like results for `Cl.O=Cc1cccc(OCCN2CCC(Cc3ccccc3)CC2)c1` [Ex. 15, 3-((2-(4-Benzylpiperidin-1-yl)ethyl)oxy)benzaldehyde hydrochloride] were, in that order, above 100 µM, 1.2 µM and 100 mg/kg.
In the same order, the values of `Nc1cccc(OCCN2CCC(Cc3ccccc3)CC2)c1` [Ex. 63, 4-Benzyl-1-[2-(3-aminophenoxy)ethyl]piperidine] are above 100 µM, 0.5 µM and 3 mg/kg.
With `O=c1[nH]c2ccccc2n1C1CCN(CCCOc2ccccc2)CC1` [Ex. 96, 4-(2-Keto-1-benzimidazolinyl)-1-(3-phenoxypropyl)piperidine hydrobromide], the figures for the IC50 in assay [1] and in assay [3] were above 100 µM and 17 µM, respectively. The molecule further gave an ED50 in assay [4] of 3.5 mg/kg.
Take `OC1(Cc2ccccc2)CCN(CCc2ccccc2)CC1` [Ex. 90, 4-Benzyl-4-hydroxy-1-(2-phenylethyl)piperidine hydrochloride]: the IC50 in assay [1] was above 100 µM; in assay [3] it was 5 µM. Also, the ED50 in assay [4] was 5 mg/kg.
In the same order, the values of `Nc1ccccc1OCCN1CCC(Cc2ccccc2)CC1` [Ex. 61, 4-Benzyl-1-[2-(2-aminophenoxy)ethyl]piperidine] are above 100 µM, 0.3 µM and 2.5 mg/kg.
For the molecule `Nc1ccc(OCCN2CCC(Cc3ccccc3)CC2)cc1N` [Ex. 57, 4-Benzyl-1-[2-(3,4-diaminophenoxy)ethyl]piperidine], the results for the IC50 in assay [1] and in assay [3] were above 100 µM and 0.3 µM, respectively. In assay [4], the 50% effective dose (ED50) stood at 6.5 mg/kg.
The like results for `Nc1cccc(OCCN2CCC(Cc3ccccc3)CC2)c1N` [Ex. 53, 4-Benzyl-1-[2-(2,3-diaminophenoxy)ethyl]piperidine] were, in that order, above 100 µM, 0.31 µM and 2.5 mg/kg.
In the same order, the values of `COc1ccc(OCCN2CCC(Cc3ccccc3)CC2)cc1` [Ex. 70] are above 100 µM, 1 µM and 1.5 mg/kg.
For `Nc1ccc(OCCN2CCC(Cc3ccccc3)CC2)cc1` [Ex. 65, 4-Benzyl-1-[2-(4-aminophenoxy)ethyl]piperidine], it took a dose of 6 mg/kg to reach the 50% effect level in assay [4] (ED50).
For the molecule `c1ccc(CCN2CCC(Cc3ccccc3)CC2)cc1` [Ex. 83, 4-Benzyl-1-(2-phenylethyl)piperidine hydrochloride], the IC50 in assay [1] is above 100 µM; in assay [3], 1 µM. The same molecule returned an ED50 in assay [4] of 2 mg/kg.
`c1ccc(CC2CCN(CCSc3ccccc3)CC2)cc1` [Ex. 144, 4-Benzyl-1-(2-thiophenoxyethyl)piperidine hydrochloride]: the IC50 in assay [1] was above 300 µM; in assay [2] it was above 300 µM; in assay [3], 1.6 µM.
For `OC(CCc1ccccc1)CN1CCC(Cc2ccccc2)CC1` (centres unmarked) [Ex. 4, 4-Benzyl-1-[(2-hydroxy-4-phenyl)butyl]piperidine], the values for the IC50 in assay [1], in assay [2] and in assay [3] were above 100 µM, above 100 µM and 9 µM, respectively.
Turning to `c1ccc(CC2CCN(CCOc3ccc4ncccc4c3)CC2)cc1` [Ex. 50], the IC50 in assay [1] is above 100 µM; in assay [2] it was 75 µM; in assay [3] it was 5 µM.
The like results for `N=c1[nH]c2ccc(OCCN3CCC(Cc4ccccc4)CC3)cc2[nH]1` [Ex. 172, 4-Benzyl-1-(2-(2-iminobenzimidazol-5-oxy)ethyl)piperidine] were, in that order, 50 µM, 140 µM and 0.11 µM.
Consider `Fc1ccc(CC2CCN(CCOc3ccc(F)cc3)CC2)cc1` [Ex. 33, 4-(4-Fluorobenzyl)-1-(2-(4-fluorophenoxy)ethyl)piperidine hydrochloride], for which the IC50 is above 100 µM in assay [1] and 2 µM in assay [3]. The molecule further gave an ED50 in assay [4] of 4 mg/kg.
For the molecule `c1ccc(COc2ccc(OCCN3CCC(Cc4ccccc4)CC3)cc2)cc1` [Ex. 98, 1-[2-(4-Benzyloxyphenoxy)ethyl]-4-benzylpiperidine hydrochloride], the IC50 in assay [1] is 80 µM; in assay [2] it was 80 µM; in assay [3] it was 100 µM.
With `Oc1cccc(OCCN2CCC(Cc3ccc(F)cc3)CC2)c1` [Ex. 159, 4-(4-Fluorobenzyl)-1-[2-(3-Hydroxyphenoxy)ethyl]piperidine hydrochloride], the figures for the IC50 in assay [1], in assay [2] and in assay [3] were 140 µM, 130 µM and 0.5 µM, respectively.
Take `O=[N+]([O-])c1ccc(OCCN2CCC(Cc3ccc(Cl)cc3)CC2)cc1` [Ex. 27, 4-(4-Chlorobenzyl)-1-(2-(4-nitrophenoxy)ethyl)piperidine hydrobromide]: the IC50 was above 100 µM in assay [1] and 5 µM in assay [3]. Besides, the ED50 in assay [4] came to 5 mg/kg.
Take `Nc1ccc(OCCN2CCC(Cc3ccccc3)CC2)cc1[N+](=O)[O-]` [Ex. 56, 4-Benzyl-1-[2-(4-amino-3-nitrophenoxy)ethyl]piperidine]: the IC50 was above 100 µM in assay [1], 90 µM in assay [2] and 1.1 µM in assay [3].
Regarding `NC(=O)Cc1cccc(OCCN2CCC(Cc3ccccc3)CC2)c1` [Ex. 19, 1-(2-(3-(Aminocarbonylmethyl)phenoxy)ethyl)-4-benzylpiperidine], the IC50 in assay [3] worked out at 0.35 µM. Besides, in assay [4], the ED50 amounted to 6 mg/kg.
